For 14 substances, EC50 results are on record in US10150760B2, “Compounds for use in preparing heterocyclic triazole agonists of the APJ receptor” (AMGEN INC., priority 2016, dated 2018).

The target in the assay is human APJ receptor (Homo sapiens (Human), UniProt P35414). The experiment in a line: [35S]GTPγS binding assay on membranes from CHO cells stably expressing human APJ receptor. The class given is biochemical. Conditions: read-out: Activity hAPJ SPA EC50 IP. Put shortly: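 Membranes from CHO cells stably expressing human APJ incubated with ligand, 0.2 nM [35S]GTPγS and WGA SPA beads in HEPES pH 7.5 with 5 mM MgCl2, 200 mM NaCl, 3 μM GDP, 90 min at RT. Nonspecific binding defined with 100 μM GTPγS; EC50 by non-linear regression.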
Chain of human APJ receptor (P35414 whole entry): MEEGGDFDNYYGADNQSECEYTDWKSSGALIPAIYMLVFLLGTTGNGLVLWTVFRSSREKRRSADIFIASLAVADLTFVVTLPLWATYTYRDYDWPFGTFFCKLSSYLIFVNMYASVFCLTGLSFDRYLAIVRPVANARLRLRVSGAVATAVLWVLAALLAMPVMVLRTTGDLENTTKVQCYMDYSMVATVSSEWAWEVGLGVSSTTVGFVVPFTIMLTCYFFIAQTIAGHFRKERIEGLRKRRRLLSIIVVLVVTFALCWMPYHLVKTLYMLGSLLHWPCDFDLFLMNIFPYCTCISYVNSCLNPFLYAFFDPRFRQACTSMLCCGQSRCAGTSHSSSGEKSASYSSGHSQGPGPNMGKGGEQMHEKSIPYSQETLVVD
(GTPγS is a poorly hydrolysed GTP analogue; its binding reports G protein activation.)

In the case of “(2S,3R)-3-(5-chloro-2-pyrimidinyl)-N-(4-(1,3-dimethoxy-2-propanyl)-5-((2R,5R)-5-methyltetrahydro-2-furanyl)-4H-1,2,4-triazol-3-yl)-2-butanesulfonamide or (2S,3R)-3-(5-chloro-2-pyrimidinyl)-N-(4-(1,3-dimethoxy-2-propanyl)-5-((2S,5S)-5-methyltetrahydro-2-furanyl)-4H-1,2,4-triazol-3-yl)-2-butanesulfonamide [Example 374.0]”, the half-maximal effective concentration (EC50) (in general, the concentration giving half of the maximal effect) amounted to 0.0056 µM. In the case of “(2S,3R)-3-(5-chloropyrimidin-2-yl)-N-(4-(2,6-dimethoxyphenyl)-5-((R)-1,1-dioxidotetrahydrothiophen-3-yl)-4H-1,2,4-triazol-3-yl)butane-2-sulfonamide or (2S,3R)-3-(5-chloropyrimidin-2-yl)-N-(4-(2,6-dimethoxyphenyl)-5-((S)-1,1-dioxidotetrahydrothiophen-3-yl)-4H-1,2,4-triazol-3-yl)butane-2-sulfonamide [Example 189.0]” it was 0.2 µM; in that of “(2S,3R)-3-(5-chloropyrimidin-2-yl)-N-(4-(2,6-dimethoxyphenyl)-5-((R)-1,1-dioxidotetrahydrothiophen-3-yl)-4H-1,2,4-triazol-3-yl)butane-2-sulfonamide or (2S,3R)-3-(5-chloropyrimidin-2-yl)-N-(4-(2,6-dimethoxyphenyl)-5-((S)-1,1-dioxidotetrahydrothiophen-3-yl)-4H-1,2,4-triazol-3-yl)butane-2-sulfonamide [Example 190.0]”, 0.3 µM; in that of “(2S,3R)-3-(5-chloropyrimidin-2-yl)-N-(4-(2,6-dimethoxyphenyl)-5-((R)-3-oxoisoindolin-1-y1)-4H-1,2,4-triazol-3-yl)butane-2-sulfonamide or (2S,3R)-3-(5-chloropyrimidin-2-yl)-N-(4-(2,6-dimethoxyphenyl)-5-((S)-3-oxoisoindolin-1-yl)-4H-1,2,4-triazol-3-yl)butane-2-sulfonamide [Example 235.0]”, 0.83 µM. The figure for “(2S,3R)-3-(5-chloropyrimidin-2-yl)-N-(4-(2,6-dimethoxyphenyl)-5-((S)-3-oxoisoindolin-1-yl)-4H-1,2,4-triazol-3-yl)butane-2-sulfonamide or (2S,3R)-3-(5-chloropyrimidin-2-yl)-N-(4-(2,6-dimethoxyphenyl)-5-((R)-3-oxoisoindolin-1-yl)-4H-1,2,4-triazol-3-yl)butane-2-sulfonamide [Example 234.0]” is 0.23 µM; for “(2S,3R)-3-(5-chloropyrimidin-2-yl)-N-(4-(3,5-dibromo-2,6-dimethoxyphenyl)-5-((R)-tetrahydrofuran-3-yl)-4H-1,2,4-triazol-3-yl)butane-2-sulfonamide or (2S,3R)-3-(5-chloropyrimidin-2-yl)-N-(4-(3,5-dibromo-2,6-dimethoxyphenyl)-5-((S)-tetrahydrofuran-3-yl)-4H-1,2,4-triazol-3-yl)butane-2-sulfonamide [Example 331.0]” it is 3.5 µM; for “(2S,3R)-3-(5-chloropyrimidin-2-yl)-N-(4-(4,6-dimethoxypyrimidin-5-yl)-5-((R)-5,5-dimethyltetrahydrofuran-3-yl)-4H-1,2,4-triazol-3-yl)butane-2-sulfonamide or (2S,3R)-3-(5-chloropyrimidin-2-yl)-N-(4-(4,6-dimethoxypyrimidin-5-yl)-5-((S)-5,5-dimethyltetrahydrofuran-3-yl)-4H-1,2,4-triazol-3-yl)butane-2-sulfonamide [Example 317.0]” it is 0.052 µM. For “(2S,3R)-3-(5-chloropyrimidin-2-yl)-N-(4-(4,6-dimethoxypyrimidin-5-yl)-5-((R)-5,5-dimethyltetrahydrofuran-3-yl)-4H-1,2,4-triazol-3-yl)butane-2-sulfonamide or (2S,3R)-3-(5-chloropyrimidin-2-yl)-N-(4-(4,6-dimethoxypyrimidin-5-yl)-5-((S)-5,5-dimethyltetrahydrofuran-3-yl)-4H-1,2,4-triazol-3-yl)butane-2-sulfonamide [Example 318.0]”, the EC50 was found to be 0.013 µM. In the case of “(2S,3R)-N-(4-(1,3-dimethoxy-2-propanyl)-5-((2R,5R)-5-methyltetrahydro-2-furanyl)-4H-1,2,4-triazol-3-yl)-3-(5-fluoro-2-pyrimidinyl)-2-butanesulfonamide or (2S,3R)-N-(4-(1,3-dimethoxy-2-propanyl)-5-((2S,5S)-5-methyltetrahydro-2-furanyl)-4H-1,2,4-triazol-3-yl)-3-(5-fluoro-2-pyrimidinyl)-2-butanesulfonamide [Example 368.0]” it was 0.1 µM. In the case of “(2S,3R)-N-(4-(1,3-dimethoxy-2-propanyl)-5-((2R,5R)-5-methyltetrahydro-2-furanyl)-4H-1,2,4-triazol-3-yl)-3-(5-fluoro-2-pyrimidinyl)-2-butanesulfonamide or (2S,3R)-N-(4-(1,3-dimethoxy-2-propanyl)-5-((2S,5S)-5-methyltetrahydro-2-furanyl)-4H-1,2,4-triazol-3-yl)-3-(5-fluoro-2-pyrimidinyl)-2-butanesulfonamide [Example 369.0]” it was 0.021 µM; in that of “(2S,3R)-N-(4-(1,3-dimethoxy-2-propanyl)-5-((2R,5R)-5-methyltetrahydro-2-furanyl)-4H-1,2,4-triazol-3-yl)-3-(5-methoxy-2-pyrazinyl)-2-butanesulfonamide or (2S,3R)-N-(4-(1,3-dimethoxy-2-propanyl)-5-((2S,5S)-5-methyltetrahydro-2-furanyl)-4H-1,2,4-triazol-3-yl)-3-(5-methoxy-2-pyrazinyl)-2-butanesulfonamide [Example 376.0]”, 0.12 µM; in that of “(2S,3R)-N-(4-(1,3-dimethoxy-2-propanyl)-5-((2R,5R)-5-methyltetrahydro-2-furanyl)-4H-1,2,4-triazol-3-yl)-3-(5-methoxy-2-pyrazinyl)-2-butanesulfonamide or (2S,3R)-N-(4-(1,3-dimethoxy-2-propanyl)-5-((2S,5S)-5-methyltetrahydro-2-furanyl)-4H-1,2,4-triazol-3-yl)-3-(5-methoxy-2-pyrazinyl)-2-butanesulfonamide [Example 377.0]”, 0.024 µM. The figure for “(2S,3R)-N-(4-(1,3-dimethoxy-2-propanyl)-5-((2R,5R)-5-methyltetrahydro-2-furanyl)-4H-1,2,4-triazol-3-yl)-3-(5-methoxy-2-pyrimidinyl)-2-butanesulfonamide or (2S,3R)-N-(4-(1,3-dimethoxy-2-propanyl)-5-((2S,5S)-5-methyltetrahydro-2-furanyl)-4H-1,2,4-triazol-3-yl)-3-(5-methoxy-2-pyrimidinyl)-2-butanesulfonamide [Example 370.0]” is 0.62 µM. For “(2S,3R)-N-(4-(1,3-dimethoxy-2-propanyl)-5-((2R,5R)-5-methyltetrahydro-2-furanyl)-4H-1,2,4-triazol-3-yl)-3-(5-methoxy-2-pyrimidinyl)-2-butanesulfonamide or (2S,3R)-N-(4-(1,3-dimethoxy-2-propanyl)-5-((2S,5S)-5-methyltetrahydro-2-furanyl)-4H-1,2,4-triazol-3-yl)-3-(5-methoxy-2-pyrimidinyl)-2-butanesulfonamide [Example 371.0]”, the concentration for a half-maximal effect (EC50) was 0.015 µM.
